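Cells were grown in 96-well plates and exposed to each compound for 48 hours at five concentrations; endpoints were interpolated linearly between bracketing concentrations, or set to the highest concentration if not reached. At the GI50, growth is halved.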 The source made the active and inactive calls. Rule as the data show it: active = GI50 up to about 1.1 µM and inactive = higher.
What was measured:
Experiment in all cases: NCI tumour cell line growth inhibition, 48 h
[1] = tested on: A498
[2] = tested on: DU-145
[3] = tested on: HCT-116
[4] = tested on: HOP-92
[5] = tested on: IGROV-1
[6] = tested on: KM12
[7] = tested on: Malme-3M
[8] = tested on: NCI-H226
[9] = tested on: NCI-H23
[10] = tested on: NCI/ADR-RES
[11] = tested on: OVCAR-3
[12] = tested on: OVCAR-5
[13] = tested on: OVCAR-8
[14] = tested on: SF-295
[15] = tested on: SK-MEL-2
[16] = tested on: SK-MEL-5
[17] = tested on: SK-OV-3
[18] = tested on: SNB-19
[19] = tested on: SNB-75
[20] = tested on: UACC-62

SMILES	GI50 [1]	GI50 [2]	GI50 [3]	GI50 [4]	GI50 [5]	GI50 [6]	GI50 [7]	GI50 [8]	GI50 [9]	GI50 [10]	GI50 [11]	GI50 [12]	GI50 [13]	GI50 [14]	GI50 [15]	GI50 [16]	GI50 [17]	GI50 [18]	GI50 [19]	GI50 [20]
CC(C)C(C/C=C1/CC(CO)(COC(=O)C(C)(C)C)OC1=O)C(C)C (stereo unspecified)	7.67 µM (inactive)	11.1 µM (inactive)	14.3 µM (inactive)	10.4 µM (inactive)	16.2 µM (inactive)	13.8 µM (inactive)	3.62 µM (inactive)	7.57 µM (inactive)	9.51 µM (inactive)	15.7 µM (inactive)	15.6 µM (inactive)	11.6 µM (inactive)	19 µM (inactive)	2.61 µM (inactive)	15.1 µM (inactive)	4.52 µM (inactive)	16.7 µM (inactive)	12.9 µM (inactive)	5.45 µM (inactive)	12.9 µM (inactive)
N#Cc1ccc(OC(=O)c2ccc(NC(=N)N)cc2)cc1.c1ccncc1	> 100 µM (inactive)	> 100 µM (inactive)	59.3 µM (inactive)	93.5 µM (inactive)	> 100 µM (inactive)	57 µM (inactive)	> 100 µM (inactive)	50 µM (inactive)	> 100 µM (inactive)	> 100 µM (inactive)	30.1 µM (inactive)	> 100 µM (inactive)	> 100 µM (inactive)	> 100 µM (inactive)	> 100 µM (inactive)	> 100 µM (inactive)	> 100 µM (inactive)	56.2 µM (inactive)	43.9 µM (inactive)	> 100 µM (inactive)
COc1cc2c(cc1OC)C(=O)/C(=C/c1cc(C)c(O)c(C)c1)C2	> 21.2 µM (inactive)	< 0.01 µM (active)	< 0.0112 µM (active)	> 100 µM (inactive)	< 0.0166 µM (active)	< 0.01 µM (active)	< 0.01 µM (active)	23.8 µM (inactive)	< 0.01 µM (active)	0.403 µM (active)	0.0115 µM (active)	1.63 µM (inactive)		< 0.018 µM (active)	< 0.01 µM (active)	< 0.01 µM (active)	< 0.01 µM (active)		< 0.01 µM (active)	< 0.0168 µM (active)
CCN(CC)C1Oc2cc3c(cc2C(c2cc(OC)c(O)c(OC)c2)C1C)OCO3 (stereo unspecified)	24.6 µM (inactive)	29.9 µM (inactive)	4.53 µM (inactive)	15.5 µM (inactive)	9.98 µM (inactive)	4.44 µM (inactive)	3.55 µM (inactive)	10.8 µM (inactive)	28.8 µM (inactive)	5.92 µM (inactive)	7.21 µM (inactive)	14.2 µM (inactive)	14.8 µM (inactive)	5.22 µM (inactive)	18.7 µM (inactive)	3.63 µM (inactive)	9.18 µM (inactive)	16.2 µM (inactive)	3.48 µM (inactive)	4.49 µM (inactive)
O=C(O)C(Cl)(c1ccccc1)c1ccccc1	> 100 µM (inactive)	> 100 µM (inactive)	> 100 µM (inactive)	> 100 µM (inactive)	> 100 µM (inactive)	> 100 µM (inactive)	> 100 µM (inactive)	> 100 µM (inactive)	> 100 µM (inactive)	> 100 µM (inactive)	> 100 µM (inactive)	> 100 µM (inactive)	> 100 µM (inactive)	> 100 µM (inactive)	> 100 µM (inactive)	> 100 µM (inactive)	> 100 µM (inactive)	> 100 µM (inactive)	> 100 µM (inactive)	> 100 µM (inactive)
O=[N+]([O-])c1cc(CCl)ccc1CCl	6.59 µM (inactive)	1.63 µM (inactive)	1.69 µM (inactive)	1.76 µM (inactive)	1.56 µM (inactive)	1.66 µM (inactive)	1.74 µM (inactive)	3.78 µM (inactive)	2.16 µM (inactive)	2.7 µM (inactive)	1.87 µM (inactive)	2.62 µM (inactive)	2.4 µM (inactive)	6.82 µM (inactive)	2.72 µM (inactive)	2.67 µM (inactive)	13.3 µM (inactive)	1.89 µM (inactive)	2.13 µM (inactive)	4.41 µM (inactive)
Cc1cc2nc(CC(C(F)(F)F)C(F)(F)F)oc2cc1C	5.71 µM (inactive)	4.36 µM (inactive)	1 µM (active)	7.5 µM (inactive)	1.97 µM (inactive)	3 µM (inactive)	3.34 µM (inactive)	1.88 µM (inactive)	1.37 µM (inactive)	1.71 µM (inactive)	2.65 µM (inactive)	7.41 µM (inactive)	1.12 µM (active)	4.76 µM (inactive)	2.81 µM (inactive)	4.32 µM (inactive)	14.1 µM (inactive)	5.09 µM (inactive)	1.61 µM (inactive)	1.42 µM (inactive)
O=C1CC(=O)NC(NN2C(=O)/C(=C/C(=O)c3ccco3)N=C2c2ccccc2)=N1	> 100 µM (inactive)	> 100 µM (inactive)	> 100 µM (inactive)	24.8 µM (inactive)	43.3 µM (inactive)	30.5 µM (inactive)	7 µM (inactive)	> 100 µM (inactive)	> 100 µM (inactive)	41.1 µM (inactive)	42.4 µM (inactive)	> 100 µM (inactive)	44.5 µM (inactive)	94.2 µM (inactive)	92.7 µM (inactive)		> 100 µM (inactive)		22.2 µM (inactive)	37.7 µM (inactive)
COc1c(C)c2c(c(=O)c3c(C)cccc3n2C)c2c1c(=O)c1c(C)cccc1n2C	> 10 µM (inactive)	> 10 µM (inactive)	> 10 µM (inactive)	> 10 µM (inactive)	> 10 µM (inactive)	> 10 µM (inactive)	> 10 µM (inactive)	> 10 µM (inactive)	> 10 µM (inactive)	9.18 µM (inactive)	> 10 µM (inactive)	> 10 µM (inactive)	9.66 µM (inactive)	> 10 µM (inactive)	> 10 µM (inactive)	> 10 µM (inactive)	> 10 µM (inactive)	> 10 µM (inactive)	> 10 µM (inactive)	> 10 µM (inactive)
O=C(Nc1ccccc1C(=O)O)C(=Cc1ccccc1O)NC(=O)c1ccccc1	> 100 µM (inactive)	> 100 µM (inactive)	> 100 µM (inactive)	> 100 µM (inactive)	> 100 µM (inactive)	> 100 µM (inactive)	> 100 µM (inactive)	61.2 µM (inactive)	> 100 µM (inactive)	> 100 µM (inactive)	> 100 µM (inactive)	> 100 µM (inactive)	> 100 µM (inactive)	> 100 µM (inactive)	> 100 µM (inactive)	> 100 µM (inactive)	> 100 µM (inactive)	> 100 µM (inactive)	> 100 µM (inactive)	> 100 µM (inactive)
COc1cccc2cc(C(=O)NC34CC5CC(CC(C5)C3)C4)c(=N)oc12	> 100 µM (inactive)	> 100 µM (inactive)	52.1 µM (inactive)	> 36.2 µM (inactive)	> 46.3 µM (inactive)	54.6 µM (inactive)	> 86.5 µM (inactive)	> 61 µM (inactive)	> 100 µM (inactive)	> 86.1 µM (inactive)	24.6 µM (inactive)	> 100 µM (inactive)	23.8 µM (inactive)	68.5 µM (inactive)	> 95.1 µM (inactive)	> 69.2 µM (inactive)	58.6 µM (inactive)	73.8 µM (inactive)	44.6 µM (inactive)	> 100 µM (inactive)
CC(C)(C)c1ccc(OCCOc2ccc(C(C)(C)C)cc2N)c(N)c1	18.3 µM (inactive)	> 100 µM (inactive)	> 100 µM (inactive)	17.4 µM (inactive)	38.5 µM (inactive)	> 100 µM (inactive)	22.2 µM (inactive)	> 100 µM (inactive)	27.6 µM (inactive)	48.8 µM (inactive)	> 100 µM (inactive)	> 100 µM (inactive)	29.9 µM (inactive)	> 100 µM (inactive)	> 100 µM (inactive)	> 100 µM (inactive)	> 100 µM (inactive)	> 100 µM (inactive)	47.8 µM (inactive)	> 100 µM (inactive)
CCOC(=O)c1c(Nc2ccccc2)sc2cccnc12	3.56 µM (inactive)	28.7 µM (inactive)	5.92 µM (inactive)	1.9 µM (inactive)	23 µM (inactive)	18.9 µM (inactive)	30.3 µM (inactive)	5.68 µM (inactive)	30.3 µM (inactive)	21.9 µM (inactive)	17.4 µM (inactive)	12.4 µM (inactive)	25.1 µM (inactive)	21.4 µM (inactive)	17.7 µM (inactive)	3.56 µM (inactive)	36 µM (inactive)	7.66 µM (inactive)	19.9 µM (inactive)	11.9 µM (inactive)
COc1cc2c(cc1OC(=O)c1cc3ccccc3[nH]1)N=C[C@@H]1CCCN1C2=O	0.219 µM (active)	0.425 µM (active)	0.41 µM (active)	0.542 µM (active)	0.274 µM (active)	0.433 µM (active)	0.398 µM (active)	0.809 µM (active)	0.37 µM (active)	0.461 µM (active)	0.296 µM (active)	0.255 µM (active)	0.462 µM (active)	1.03 µM (active)	0.224 µM (active)	0.175 µM (active)	1.35 µM (inactive)	0.352 µM (active)	1.41 µM (inactive)	0.269 µM (active)
